# Measured values published in US20110086759A1, “CHEMICAL COMPOUNDS” (SYNGENTA CROP PROTECTION, INC., priority 2007, published 2011).
# Tests used:
# Assay type in all cases: in vivo
# [1] = system: Amaranthus retoflexus (AMARE); test: Pre-emergence biological efficacy, glasshouse pot test; settings: Amaranthus retroflexus, 312 h; pre-emergence, rate 1,000 g/ha, evaluated after 13 days (100=total damage to plant; 0=no damage); read-out: Percentage damage caused to weed species, AMARE
# Outline: (§1)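 Compound was applied as a spray one day after sowing, at a final dose of 1000 or 250 g/ha. Plants grew under 14 h light, 24/16 °C and 65% humidity, and injury was assessed on day 13 on a 0–100 scale.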
# [2] = system: Echinochloa crus-galli (ECHCG); test: as above; settings: 312 h, pre-emergence, rate 1,000 g/ha, evaluated after 13 days (100=total damage to plant; 0=no damage), read-out: Percentage damage caused to weed species, ECHCG
# Outline: as §1
# [3] = system: Ipomea hederaceae (IPOHE); test: as above; settings: Ipomoea hederacea, 312 h; pre-emergence, rate 1,000 g/ha, evaluated after 13 days (100=total damage to plant; 0=no damage); read-out: Percentage damage caused to weed species, IPOHE
# Outline: as §1
# [4] = system: Solanum nigrum (SOLNI); test: as above; settings: 312 h, pre-emergence, rate 1,000 g/ha, evaluated after 13 days (100=total damage to plant; 0=no damage), read-out: Percentage damage caused to weed species, SOLNI
# Outline: as §1
# [5] = system: Setaria faberi (SETFA); test: as above; settings: 312 h, pre-emergence, rate 1,000 g/ha, evaluated after 13 days (100=total damage to plant; 0=no damage), read-out: Percentage damage caused to weed species, SETFA
# Outline: as §1
# [6] = system: Alopecurus myosuroides (ALOMY); test: as above; settings: 312 h, pre-emergence, rate 1,000 g/ha, evaluated after 13 days (100=total damage to plant; 0=no damage), read-out: Percentage damage caused to weed species, ALOMY
# Outline: as §1
# [7] = system: Amaranthus retoflexus (AMARE); test: Post-emergence biological efficacy, glasshouse pot test; settings: Amaranthus retroflexus, 312 h; Rate 1,000 g/ha; post-emergence spray; evaluated after 13 days (100=total damage to plant; 0=no damage to plant); read-out: Percentage damage caused to weed species, post-emergence, AMARE
# Outline: (§2)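 Plants were sown in standard soil and grown 8 days in a glasshouse (24/16° C. day/night, 14 hours light, 65% humidity), then sprayed post-emergence at 1000 or 250 g/ha from acetone/water (50:50) with 0.5% Tween 20. Damage was scored visually after 13 days (0 = none, 100 = total).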
# [8] = system: Echinochloa crus-galli (ECHCG); test: as above; settings: 312 h, Rate 1,000 g/ha, post-emergence spray, evaluated after 13 days (100=total damage to plant; 0=no damage to plant), read-out: Percentage damage caused to weed species, post-emergence, ECHCG
# Outline: as §2
# [9] = system: Ipomea hederaceae (IPOHE); test: as above; settings: Ipomoea hederacea, 312 h; Rate 1,000 g/ha; post-emergence spray; evaluated after 13 days (100=total damage to plant; 0=no damage to plant); read-out: Percentage damage caused to weed species, post-emergence, IPOHE
# Outline: as §2
# [10] = system: Solanum nigrum (SOLNI); test: as above; settings: 312 h, Rate 1,000 g/ha, post-emergence spray, evaluated after 13 days (100=total damage to plant; 0=no damage to plant), read-out: Percentage damage caused to weed species, post-emergence, SOLNI
# Outline: as §2
# [11] = system: Setaria faberi (SETFA); test: as above; settings: 312 h, Rate 1,000 g/ha, post-emergence spray, evaluated after 13 days (100=total damage to plant; 0=no damage to plant), read-out: Percentage damage caused to weed species, post-emergence, SETFA
# Outline: as §2
# [12] = system: Alopecurus myosuroides (ALOMY); test: as above; settings: 312 h, Rate 1,000 g/ha, post-emergence spray, evaluated after 13 days (100=total damage to plant; 0=no damage to plant), read-out: Percentage damage caused to weed species, post-emergence, ALOMY
# Outline: as §2
SMILES,pest or weed control at 1000 g/ha [1],pest or weed control at 1000 g/ha [2],pest or weed control at 1000 g/ha [3],pest or weed control at 1000 g/ha [4],pest or weed control at 1000 g/ha [5],pest or weed control at 1000 g/ha [6],pest or weed control at 1000 g/ha [7],pest or weed control at 1000 g/ha [8],pest or weed control at 1000 g/ha [9],pest or weed control at 1000 g/ha [10],pest or weed control at 1000 g/ha [11],pest or weed control at 1000 g/ha [12]
"COC(=O)c1nc(Cl)nc(NCC2CC2)c1Cl [Compound 207-31, 4-Cyclopropylmethyl-amino-2,5-dichloro-6-methoxycarbonyl-pyrimidine]",20%,0%,0%,10%,0%,0%,50%,0%,10%,60%,40%,10%
"COC(=O)c1nc(Cl)nc(NCc2ccccc2)c1Cl [Compound 207-35, 2,5-Dichloro-6-methoxycarbonyl-4-phenylmethylamino-pyrimidine]",30%,10%,10%,0%,0%,10%,50%,20%,10%,60%,30%,30%
"COC(=O)c1nc(Cl)nc(NCc2ccc(C)o2)c1Cl [Compound 207-50, 2,5-Dichloro-6-methoxycarbonyl-4-(5-methylfuran-2-ylmethylamino)-pyrimidine]",60%,0%,40%,80%,0%,0%,40%,0%,70%,80%,0%,0%
"COC(=O)c1nc(-c2ccc(Cl)cc2C)nc(NCc2ccco2)c1Cl [Compound 213-48, 5-Chloro-2-(4-chloro-2-methylphenyl)-4-(furan-2-yl-methyl-amino)-6-methoxy-carbonylpyrimidine]",70%,0%,0%,0%,10%,10%,100%,0%,0%,10%,10%,0%
"COC(=O)c1nc(-c2ccc(Cl)cc2OC)nc(NCc2ccco2)c1Cl [Compound 214-48, 5-Chloro-2-(4-chloro-2-methoxyphenyl)-4-(furan-2-yl-methyl-amino)-6-methoxy-carbonylpyrimidine]",100%,0%,0%,20%,10%,20%,100%,0%,30%,70%,10%,30%
"COC(=O)c1nc(-c2ccc(Cl)c(C)c2)nc(NCc2ccco2)c1Cl [Compound 216-48, 5-Chloro-2-(4-chloro-3-methylphenyl)-4-(furan-2-ylmethyl-amino)-6-methoxy-carbonylpyrimidine]",30%,30%,0%,30%,30%,0%,100%,30%,30%,60%,10%,10%
"COC(=O)c1nc(-c2ccc(Cl)c(C(F)(F)F)c2)nc(NCc2ccco2)c1Cl [Compound 217-48, 5-Chloro-2-(4-chloro-3-trifluoromethyl-phenyl)-4-(furan-2-ylmethylamino)-6-methoxycarbonyl-pyrimidine]",20%,0%,0%,50%,20%,20%,80%,0%,30%,70%,20%,10%
"COC(=O)c1nc(-c2ccc(Cl)cc2F)nc(NCc2ccco2)c1Cl [Compound 218-48, 5-Chloro-2-(4-chloro-2-fluorophenyl)-4-(furan-2-yl-methyl-amino)-6-methoxy-carbonylpyrimidine]",100%,50%,50%,90%,70%,70%,100%,60%,90%,90%,80%,60%
"COC(=O)c1nc(-c2ccc(Cl)c([N+](=O)[O-])c2)nc(NCc2ccco2)c1Cl [Compound 219-48, 5-Chloro-2-(4-chloro-3-nitrophenyl)-4-(furan-2-yl-methyl-amino)-6-methoxycarbonyl-pyrimidine]",20%,0%,0%,0%,0%,0%,20%,0%,0%,30%,20%,0%
"COC(=O)c1nc(-c2ccc(Cl)cc2C(F)(F)F)nc(NCc2ccco2)c1Cl [Compound 220-48, 5-Chloro-2-(4-chloro-2-trifluoromethyl-phenyl)-4-(furan-2-ylmethylamino)-6-methoxycarbonyl-pyrimidine]",20%,0%,0%,0%,0%,0%,40%,0%,10%,20%,0%,20%
"COC(=O)c1nc(-c2ccc(Cl)c(C#N)c2)nc(NCc2ccco2)c1Cl [Compound 221-48, 5-Chloro-2-(4-chloro-3-cyanophenyl)-4-(furan-2-yl-methyl-amino)-6-methoxy-carbonylpyrimidine]",60%,0%,0%,0%,0%,0%,80%,30%,40%,80%,30%,10%
